For test [1], the target named is T1, recombinant form of Glutaminase 1 (GAC) (Homo sapiens, UniProt O94925).
T1 sequence (O94925 137-598 isoform O94925-3 limits assumed): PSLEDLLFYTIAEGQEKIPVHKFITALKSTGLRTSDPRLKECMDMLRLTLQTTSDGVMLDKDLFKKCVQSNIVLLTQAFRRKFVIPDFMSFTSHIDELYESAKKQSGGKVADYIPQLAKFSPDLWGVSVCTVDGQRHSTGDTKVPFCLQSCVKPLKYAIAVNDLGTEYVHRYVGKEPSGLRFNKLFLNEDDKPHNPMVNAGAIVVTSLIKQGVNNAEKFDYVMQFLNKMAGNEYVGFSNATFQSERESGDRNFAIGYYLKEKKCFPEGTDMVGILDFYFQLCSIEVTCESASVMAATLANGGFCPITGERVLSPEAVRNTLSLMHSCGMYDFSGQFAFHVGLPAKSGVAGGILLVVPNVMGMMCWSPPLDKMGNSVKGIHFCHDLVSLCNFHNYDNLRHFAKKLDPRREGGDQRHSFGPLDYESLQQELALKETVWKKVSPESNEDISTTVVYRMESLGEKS
Put plainly: Recombinant Enzyme Assay - Time Dependence (60 min preincubation). The test is classed as biochemical. The method, then: The enzyme/compound mix was sealed with sealing foil (USA Scientific) and allowed to incubate, with mild agitation, for 60 minutes at 20° C. Enzymatic reaction was started with the addition of 50 μL of substrate solution (50 mM Tris-HCl pH 8.0, 0.2 mM EDTA, 150 mM K2HPO4, 0.1 mg/ml BSA, 1 mM DTT, 20 mM L-glutamine, 2 mM NAD^+, and 10 ppm antifoam) and read in a Molecular Devices M5 plate reader at 20° C. The plate reader was configured to read absorbance (=340 nm) in kinetic mode for 15 minutes. Data was recorded as milli-absorbance units per minute and slopes were compared to a control compound and a DMSO-only control on the same plate. Compounds with slopes less than the DMSO control were considered inhibitors and plate variability was assessed using the control compound.

The subject of another test is P493-6 (myc "on") cells. Description: Cell Proliferation Assay. As to conditions: P493-6, 72 h, read-out: Cell prolif P493 72 h IC50, P493-6 cells, 72 h. In kind it is cell-based. A digest of the protocol:
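P493-6 cells with myc on, 10,000 per well in RPMI/10% FBS, exposed to serially diluted compound (0.5% DMSO final) for 72 h at 37 °C, 5% CO2. Antiproliferative effect read by Cell Titer Glo luminescence or Viacount FACS viability count.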

[2] abbreviates: read-out: GAC Delta N2 IC50 60 min preinc.

Structures are written as SMILES. pIC50: −log10 of the molar value. Where two headings read alike, the source gives them in different places.

As for `O=C(Cc1cccc(Cn2cccn2)c1)Nc1ccc(CCCCc2nnc(NC(=O)Cc3ccccc3)s2)nn1` [Compound 500], the results for the pIC50 (in test [1] (setting [2]); in the test on P493-6 (myc "on") cells) were 8.40 and 7.54, respectively.

Take `CN(C)CC(=O)NCc1cccc(CC(=O)Nc2nnc(CCCCc3ccc(NC(=O)Cc4ccccc4)nn3)s2)c1` [Compound 434]: the values for the pIC50 (in test [1] (setting [2]); in the test with P493-6 (myc "on") cells) were 8.30 and 7.77, respectively.

`CC(C)(C)OC(=O)Nc1ccc(CC(=O)Nc2nnc(CCCCc3ccc(NC(=O)Cc4ccccc4)nn3)s2)cc1` [Compound 400]: the pIC50 is 7.82 in test [1] (setting [2]) and 7.28 in the test on P493-6 (myc "on") cells.

For the compound `O=C(Cc1ccccc1)Nc1ccc(CCCCc2nnc(NC(=O)Cc3cccc(CC(=O)N4CCC4)c3)s2)nn1` [Compound 487], the results for the pIC50 (in test [1] (setting [2]); in the test with P493-6 (myc "on") cells) were 8.30 and 7.38, respectively.

Consider `CC(O)c1cccc(CC(=O)Nc2ccc(CCCCc3nnc(NC(=O)Cc4cccc(OC(F)(F)F)c4)s3)nn2)c1` (centres unmarked) [Compound 597], for which the pIC50 in test [1] (setting [2]) is 8.30; with P493-6 (myc "on") cells, 7.77.

As to `O=C(Cc1ccccc1)Nc1ccc(CCCCc2nnc(NC(=O)Cc3ccccc3Cl)s2)nn1` [Compound 522], the pIC50 was 7.64 in test [1] (setting [2]) and 7.22 with P493-6 (myc "on") cells.

Take `CC(N)c1cc(CC(=O)Nc2nnc(CCCCc3ccc(NC(=O)Cc4ccccc4)nn3)s2)ccc1F` (centres unmarked) [Compound 655]: the pIC50 in test [1] (setting [2]) is 7.72; in the test on P493-6 (myc "on") cells, 6.46.

As to `CC(=O)Nc1ccc(CCCCc2nnc(NC(=O)Cc3cccc(CNC(=O)OC(C)(C)C)c3)s2)nn1` [Compound 424], the pIC50 was 8.22 in test [1] (setting [2]) and 8.10 in the test on P493-6 (myc "on") cells.

Turning to `CS(=O)(=O)NCc1cccc(CC(=O)Nc2nnc(CCCCc3ccc(NC(=O)Cc4ccccc4)nn3)s2)c1` [Compound 452], the pIC50 was 8.40 in test [1] (setting [2]) and 7.31 in the test with P493-6 (myc "on") cells.

Regarding `O=C(Cc1ccccc1)Nc1ccc(CCCCc2nnc(NC(=O)Cc3ccc(Cl)c(Cl)c3)s2)nn1` [Compound 548], the pIC50 in test [1] (setting [2]) is 8.00; in the test on P493-6 (myc "on") cells, 7.07.

`CCOc1cccc(CC(=O)Nc2nnc(CCCCc3ccc(NC(=O)Cc4ccccc4)nn3)s2)c1` [Compound 488]: the figures for the pIC50 (in test [1] (setting [2]); with P493-6 (myc "on") cells) were 6.49 and 5.72, respectively.

As to `CS(=O)(=O)Cc1cccc(CC(=O)Nc2ccc(CCCCc3nnc(NC(=O)Cc4ccccc4)s3)nn2)c1` [Compound 635], the figures for the pIC50 (in test [1] (setting [2]); in the test with P493-6 (myc "on") cells) were 8.30 and 7.52, respectively.

For `CC1(C)CCN(C(=O)Cc2cccc(CC(=O)Nc3nnc(CCCCc4ccc(NC(=O)Cc5ccccc5)nn4)s3)c2)C1` [Compound 481], the pIC50 in test [1] (setting [2]) is 8.40; in the test with P493-6 (myc "on") cells, 7.92.

Regarding `CCOC(=O)Cc1cccc(CC(=O)Nc2nnc(CCCCc3ccc(NC(=O)Cc4ccccc4)nn3)s2)c1` [Compound 456], the pIC50 in test [1] (setting [2]) is 8.52; in the test on P493-6 (myc "on") cells it was 7.62.

Take `CC(C)CNC(=O)Cc1cccc(CC(=O)Nc2nnc(CCCCc3ccc(NC(=O)Cc4ccccc4)nn3)s2)c1` [Compound 470]: the pIC50 in test [1] (setting [2]) is 8.52; with P493-6 (myc "on") cells, 8.05.

For the compound `CCNC(=O)OC(C)c1cccc(CC(=O)Nc2nnc(CCCCc3ccc(NC(=O)Cc4ccccc4)nn3)s2)c1` (centres unmarked) [Compound 592], the values for the pIC50 (in test [1] (setting [2]); in the test with P493-6 (myc "on") cells) were 8.40 and 7.96, respectively.

`CN1CCC(Oc2cccc(CC(=O)Nc3nnc(CCCCc4ccc(NC(=O)Cc5ccccc5)nn4)s3)c2)CC1` [Compound 551]: the pIC50 was 8.00 in test [1] (setting [2]) and 6.90 with P493-6 (myc "on") cells.

In the case of `CN(C)Cc1cccc(CC(=O)Nc2nnc(CCCCc3ccc(NC(=O)Cc4ccccc4)nn3)s2)c1` [Compound 406], the pIC50 in test [1] (setting [2]) was 7.80; in the test with P493-6 (myc "on") cells, 6.57.

For the compound `CC(=O)Nc1ccc(CCCCc2nnc(NC(=O)Cc3cccc(CN)c3)s2)nn1` [Compound 425], the figures for the pIC50 (in test [1] (setting [2]); with P493-6 (myc "on") cells) were 7.07 and 7.82, respectively.

For the compound `O=C(Cc1cccc(OCCCO)c1)Nc1ccc(CCCCc2nnc(NC(=O)Cc3ccccc3)s2)nn1` [Compound 539], the values for the pIC50 (in test [1] (setting [2]); in the test on P493-6 (myc "on") cells) were 8.05 and 7.35, respectively.

Turning to `CC(C)(O)CNC(=O)Cc1cccc(CC(=O)Nc2nnc(CCCCc3ccc(NC(=O)Cc4ccccc4)nn3)s2)c1` [Compound 514], the pIC50 was 8.05 in test [1] (setting [2]) and 7.20 in the test with P493-6 (myc "on") cells.

Consider `COC(=O)NCc1cccc(CC(=O)Nc2ccc(CCCCc3nnc(NC(=O)Cc4cccc(CNC(=O)OC)c4)s3)nn2)c1` [Compound 573], for which the pIC50 in test [1] (setting [2]) is 8.40; in the test on P493-6 (myc "on") cells, 7.82.

With `O=C(Cc1ccccc1)Nc1ccc(CCCCc2nnc(NC(=O)Cc3ccc(F)c(O)c3)s2)nn1` [Compound 538], the results for the pIC50 (in test [1] (setting [2]); in the test on P493-6 (myc "on") cells) were 8.40 and 7.52, respectively.

For the compound `CC(N)c1cc(CC(=O)Nc2ccc(CCCCc3nnc(NC(=O)Cc4ccccc4)s3)nn2)ccc1F` (centres unmarked) [Compound 656], the pIC50 in test [1] (setting [2]) is 7.74; in the test on P493-6 (myc "on") cells it was 6.40.

For the compound `O=C(Cc1ccccc1)Nc1ccc(CCCCc2nnc(NC(=O)Cc3cccc(CNC(=O)C(O)C(F)(F)F)c3)s2)nn1` (centres unmarked) [Compound 577], the pIC50 in test [1] (setting [2]) was 8.40; in the test on P493-6 (myc "on") cells it was 7.47.

For the compound `CC(NC(=O)CC(F)(F)F)c1cccc(CC(=O)Nc2ccc(CCCCc3nnc(NC(=O)Cc4ccccc4)s3)nn2)c1` (centres unmarked) [Compound 624], the figures for the pIC50 (in test [1]; with P493-6 (myc "on") cells) were 8.40 and 8.05, respectively.

Turning to `CCC(=O)NC(C)c1cccc(CC(=O)Nc2ccc(CCCCc3nnc(NC(=O)Cc4ccccc4)s3)nn2)c1` (centres unmarked) [Compound 621], the pIC50 in test [1] is 8.30; in the test on P493-6 (myc "on") cells, 7.70.

Regarding `O=C(Cc1cccc(OCC(F)(F)F)c1)Nc1ccc(CCCCc2nnc(NC(=O)Cc3ccccc3)s2)nn1` [Compound 667], the pIC50 in test [1] (setting [2]) was 8.40; with P493-6 (myc "on") cells, 6.96.

As to `CCCNC(=O)Cc1cccc(CC(=O)Nc2nnc(CCCCc3ccc(NC(=O)Cc4ccccc4)nn3)s2)c1` [Compound 497], the pIC50 is 8.40 in test [1] (setting [2]) and 7.49 in the test on P493-6 (myc "on") cells.

As for `NCCc1cccc(CC(=O)Nc2nnc(CCCCc3ccc(NC(=O)Cc4ccccc4)nn3)s2)c1` [Compound 441], the pIC50 in test [1] (setting [2]) was 7.96; in the test with P493-6 (myc "on") cells, 6.74.

As for `CCNC(=O)NCc1cccc(CC(=O)Nc2nnc(CCCCc3ccc(NC(=O)Cc4ccccc4)nn3)s2)c1` [Compound 453], the pIC50 in test [1] (setting [2]) is 8.52; with P493-6 (myc "on") cells, 7.82.

Consider `CCCCN(C)C(=O)Cc1cccc(CC(=O)Nc2nnc(CCCCc3ccc(NC(=O)Cc4ccccc4)nn3)s2)c1` [Compound 483], for which the results for the pIC50 (in test [1] (setting [2]); in the test on P493-6 (myc "on") cells) were 8.40 and 8.05, respectively.

As to `CC(C)(C)OC(=O)NCc1ccc(CC(=O)Nc2nnc(CCCCc3ccc(NC(=O)Cc4ccccc4)nn3)s2)cc1` [Compound 401], the pIC50 in test [1] (setting [2]) is 8.30; in the test with P493-6 (myc "on") cells it was 7.96.

Turning to `O=C(Cc1ccccc1)Nc1ccc(CCCCc2nnc(NC(=O)Cc3cccc(C(F)(F)F)c3)s2)nn1` [Compound 546], the pIC50 is 8.30 in test [1] (setting [2]) and 7.57 with P493-6 (myc "on") cells.

Take `CC(C(=O)Nc1nnc(CCCCc2ccc(NC(=O)Cc3ccccc3)nn2)s1)c1cccc(C(=O)c2ccccc2)c1` (centres unmarked) [Compound 587]: the figures for the pIC50 (in test [1] (setting [2]); in the test on P493-6 (myc "on") cells) were 8.15 and 7.24, respectively.

As to `CC(C)CN(C)C(=O)Cc1cccc(CC(=O)Nc2nnc(CCCCc3ccc(NC(=O)Cc4ccccc4)nn3)s2)c1` [Compound 485], the results for the pIC50 (in test [1] (setting [2]); in the test with P493-6 (myc "on") cells) were 8.40 and 7.92, respectively.

Regarding `O=C(CN1CCOCC1)Nc1cccc(CC(=O)Nc2nnc(CCCCc3ccc(NC(=O)Cc4ccccc4)nn3)s2)c1` [Compound 440], the figures for the pIC50 (in test [1] (setting [2]); with P493-6 (myc "on") cells) were 8.10 and 7.51, respectively.

Take `O=C(Cc1cccc(Cl)c1)Nc1ccc(CCCCc2nnc(NC(=O)Cc3cccc(OC(F)(F)F)c3)s2)nn1` [Compound 618]: the pIC50 was 8.10 in test [1] (setting [2]) and 7.46 in the test on P493-6 (myc "on") cells.

With `CC(C)(C)NC(=O)Cc1cccc(CC(=O)Nc2ccc(CCCCc3nnc(NC(=O)Cc4ccccc4)s3)nn2)c1` [Compound 542], the pIC50 is 8.40 in test [1] (setting [2]) and 7.37 in the test on P493-6 (myc "on") cells.

Take `CC(C)N(C)C(=O)Cc1cccc(CC(=O)Nc2nnc(CCCCc3ccc(NC(=O)Cc4ccccc4)nn3)s2)c1` [Compound 498]: the pIC50 in test [1] (setting [2]) was 8.52; in the test with P493-6 (myc "on") cells, 7.77.

As to `CC(O)(CC(=O)NCc1cccc(CC(=O)Nc2nnc(CCCCc3ccc(NC(=O)Cc4ccccc4)nn3)s2)c1)C(F)(F)F` (centres unmarked) [Compound 579], the values for the pIC50 (in test [1] (setting [2]); with P493-6 (myc "on") cells) were 8.40 and 8.05, respectively.

As to `CC(=O)N(C)Cc1cccc(CC(=O)Nc2nnc(CCCCc3ccc(NC(=O)Cc4ccccc4)nn3)s2)c1` [Compound 445], the figures for the pIC50 (in test [1] (setting [2]); in the test with P493-6 (myc "on") cells) were 8.40 and 7.66, respectively.

For the compound `COC(=O)NC(C)c1cccc(CC(=O)Nc2nnc(CCCCc3ccc(NC(=O)Cc4ccccc4)nn3)s2)c1` (centres unmarked) [Compound 561], the pIC50 (in test [1] (setting [2]); with P493-6 (myc "on") cells) was 8.40 in each case.

Values taken from patent US20150004134A1, “TREATMENT OF CANCER WITH HETEROCYCLIC INHIBITORS OF GLUTAMINASE” (Calithera Biosciences, Inc., priority 2012, published 2015).
